Source: ChEMBL document CHEMBL1255475, “Mutant prevention concentrations of four carbapenems against gram-negative rods” (2010)
Converted amounts (≈) assume the structure as drawn.

Experiments:
Klebsiella pneumoniae = experiment: Antibacterial activity against beta-lactamase-negative Klebsiella pneumoniae E360 after 24 hrs by agar dilution method; format: functional; details: E360, 24 h
Pseudomonas aeruginosa = experiment: Antibacterial activity against Pseudomonas aeruginosa P338 after 24 hrs by agar dilution method; details: P338, 24 h
Acinetobacter baumannii = experiment: Ratio of mutant prevention concentration to minimum Inhibitory concentration for Acinetobacter baumannii A892; format: functional

Row | SMILES | MIC (Klebsiella pneumoniae) | MIC (Pseudomonas aeruginosa) | Ratio (Acinetobacter baumannii)
1 | C[C@@H](O)[C@H]1C(=O)N2C(C(=O)O)=C(SCCNC=N)C[C@H]12 [IMIPENEM ANHYDROUS] | 0.25 µg/mL (≈ 0.835 µM) | 2 µg/mL (≈ 6.68 µM) | 
2 | C[C@@H](O)[C@H]1C(=O)N2C(C(=O)O)=C(S[C@@H]3CN[C@H](CNS(N)(=O)=O)C3)[C@H](C)[C@H]12 [DORIPENEM] |  |  | 16
